According to PubChem BioAssay (NCI):
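Grown in 96-well plates, cells were treated for 48 hours with each compound at five concentrations. Insufficient inhibition: endpoint recorded as highest concentration tested. TGI: concentration producing complete growth inhibition.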

Key:
Assay in all cases: NCI tumour cell line growth inhibition, 48 h
[1] = test system: K-562 leukemia
[2] = test system: IGROV1 ovarian
[3] = test system: KM12 colon
[4] = test system: A549 NSCLC
[5] = test system: HT29 colon
[6] = test system: HOP-92 NSCLC
[7] = test system: UACC-62 melanoma
[8] = test system: SF-295 CNS
[9] = test system: SK-MEL-28 melanoma
[10] = test system: MDA-MB-435
[11] = test system: SK-OV-3 ovarian
[12] = test system: HOP-62 NSCLC
[13] = test system: MCF7 breast
[14] = test system: MALME-3M melanoma
[15] = test system: OVCAR-8 ovarian

| Compound | TGI [1] [µM] | TGI [2] [µM] | TGI [3] [µM] | TGI [4] [µM] | TGI [5] [µM] | TGI [6] [µM] | TGI [7] [µM] | TGI [8] [µM] | TGI [9] [µM] | TGI [10] [µM] | TGI [11] [µM] | TGI [12] [µM] | TGI [13] [µM] | TGI [14] [µM] | TGI [15] [µM] |
| --- | --- | --- | --- | --- | --- | --- | --- | --- | --- | --- | --- | --- | --- | --- | --- |
| O=C1/C(=C/c2ccc(Cl)cc2)NC(=S)N1CN1CCOCC1 | > 100 | > 100 | > 100 | > 100 | > 100 | > 100 | > 100 | > 100 | > 100 | > 100 | > 100 | > 100 | > 100 | > 100 | > 100 |
| CCC(CC)C(=O)OC[n+]1cccc(-c2c(COC(=O)NC(C)C)c(COC(=O)NC(C)C)c3n2CCC3)c1 | > 100 | > 100 | > 100 | > 100 | > 100 | > 100 | > 100 | > 100 | > 100 | > 100 | > 100 | > 100 | > 100 | > 100 | > 100 |
| CC(=O)O[C@H]1C(=O)[C@@]2(C)[C@H]([C@H](OC(=O)c3ccc([N+](=O)[O-])cc3)[C@]3(O)C[C@H](OC(=O)[C@H](O)[C@@H](NC(=O)c4ccccc4)c4ccccc4)C(C)=C1C3(C)C)[C@]1(OC(C)=O)CO[C@@H]1C[C@@H]2O | > 25 | > 25 | > 25 | > 25 | > 25 | > 25 | > 25 | > 25 | > 25 | > 25 | > 25 | > 25 | > 25 | > 25 | > 25 |
| COc1ccc2c(c1)N(C(C)=O)CN1C(=O)CCC21 (stereo not given) | > 100 | > 100 | > 100 | > 100 | > 100 | > 100 | > 100 | > 100 | > 100 | > 100 | > 100 | > 100 | > 100 | > 100 | > 100 |
| O=c1oc2ccccc2cc1-c1nnc(-c2ccccc2)s1 | > 100 | > 66.3 | 36.2 | > 100 | > 100 | > 100 | > 100 | > 71 | > 100 | 12.9 | > 90 | > 57.1 | > 100 | > 100 | > 69.4 |
| Cc1ccc(S(=O)(=O)NC(=O)NCC(=O)NCC(=O)O)cc1 | > 100 | > 100 | > 100 | > 100 | > 100 | > 100 | > 100 | > 100 | > 100 | > 100 | > 100 | > 100 | > 100 | > 100 | > 100 |
| COc1ccc(CNc2nc(NCc3ccc(OC)cc3)nc(NC(C)C)n2)cc1 | > 100 | > 100 | 76.3 | 33.7 | > 100 | 48.7 | 31.1 | > 100 | > 100 | 11.2 | > 100 | 37.5 | 5.6 | 22.8 | 33.6 |
| CC(NC(=O)/C(C#N)=C/c1ccc2[nH]ccc2c1)c1ccccc1 (stereo not given) | > 77.9 | 33.1 | 32.2 | 55.4 | 31.6 | 33.5 | 31.8 | 35.4 | 36.9 | 31.1 | 40.4 | 33.4 | 56 | 71.2 | 48.8 |
